Results as given in PubChem BioAssay (NCI).
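The compound was tested at five concentrations on cells cultured in 96-well plates, with a 48-hour exposure period. GI50 is the concentration that inhibits growth by half. TGI: total growth inhibition.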

Legend:
Assay in all cases: NCI tumour cell line growth inhibition, 48 h
OVCAR-5 ovarian = system: OVCAR-5 ovarian
786-0 renal = system: 786-0 renal
HCT-116 colon = system: HCT-116 colon
NCI-H226 lung = system: NCI-H226 lung
PC-3 prostate = system: PC-3 prostate
UACC-257 melanoma = system: UACC-257 melanoma
SF-268 CNS = system: SF-268 CNS
HS 578T breast = system: HS 578T breast
HT29 colon = system: HT29 colon
SK-OV-3 ovarian = system: SK-OV-3 ovarian
U251 CNS = system: U251 CNS
EKVX NSCLC = system: EKVX NSCLC

Row | Compound | TGI (OVCAR-5 ovarian) | TGI (786-0 renal) | TGI (HCT-116 colon) | TGI (NCI-H226 lung) | TGI (PC-3 prostate) | TGI (UACC-257 melanoma) | TGI (SF-268 CNS) | TGI (HS 578T breast) | TGI (HT29 colon) | TGI (SK-OV-3 ovarian) | TGI (U251 CNS) | TGI (EKVX NSCLC) | GI50 (OVCAR-5 ovarian) | GI50 (HCT-116 colon) | GI50 (UACC-257 melanoma) | GI50 (SF-268 CNS) | GI50 (HT29 colon) | GI50 (SK-OV-3 ovarian) | GI50 (U251 CNS) | GI50 (EKVX NSCLC)
1 | CC(C(=O)NCNC(=O)c1ccccc1)C(=O)NCc1ccccc1 (stereo not given) | > 100 µM | > 100 µM | > 100 µM | > 100 µM | > 100 µM | > 100 µM | > 100 µM | > 100 µM | > 100 µM | > 100 µM | > 100 µM | > 100 µM | – | – | – | – | – | – | – | –
2 | COc1nc2c(c(=O)[nH]1)N=C(c1ccc([N+](=O)[O-])cc1)CC(c1ccccc1)N2 (stereo not given) | > 100 µM | > 100 µM | > 100 µM | > 100 µM | > 100 µM | > 100 µM | – | – | > 100 µM | – | > 100 µM | > 100 µM | – | – | – | – | – | – | – | –
3 | NS(=O)(=O)c1ccc(NCc2cccc3c(=O)c4ccc(Cl)cc4oc23)cc1 | > 100 µM | > 100 µM | > 100 µM | > 100 µM | > 100 µM | > 100 µM | 64.4 µM | 82.3 µM | > 100 µM | > 100 µM | > 100 µM | > 65.5 µM | – | – | – | – | – | – | – | –
4 | O=[N+]([O-])c1ccc(-c2ccc([C@H]3CC(c4cc(F)c(Cl)cc4Cl)=NN3)o2)cc1 | > 100 µM | > 100 µM | > 100 µM | 58.9 µM | – | > 100 µM | > 100 µM | > 100 µM | > 100 µM | > 100 µM | – | > 100 µM | – | – | – | – | – | – | – | –
5 | CCOC(=O)c1cn2c(n1)sc1cc([N+](=O)[O-])ccc12 | > 100 µM | > 100 µM | > 100 µM | > 100 µM | > 100 µM | > 100 µM | > 100 µM | > 100 µM | > 100 µM | > 100 µM | > 100 µM | > 100 µM | – | – | – | – | – | – | – | –
6 | C[N+](C)(C)CC(=O)N/N=C\c1c(O)ccc2ccccc12 | > 100 µM | > 100 µM | > 100 µM | 85.9 µM | > 100 µM | > 100 µM | 69.8 µM | 56.5 µM | > 100 µM | > 100 µM | > 100 µM | > 100 µM | – | – | – | – | – | – | – | –
7 | CC12CCC(C(=Nc3ccc([N+](=O)[O-])cc3)C1=O)C2(C)C (stereo not given) | > 100 µM | 78.5 µM | > 100 µM | > 100 µM | > 100 µM | > 100 µM | 47.3 µM | – | > 100 µM | > 100 µM | 97.6 µM | > 100 µM | – | – | – | – | – | – | – | –
8 | COCc1nc(C#N)c(N)o1 | – | > 10 µM | > 10 µM | > 10 µM | > 10 µM | > 10 µM | > 10 µM | > 10 µM | > 10 µM | > 10 µM | – | > 10 µM | – | – | – | – | – | – | – | –
9 | O=C(O)OC12CCCCCC1C(=O)C1CCCCC12 (stereo not given) | – | > 100 µM | > 100 µM | > 100 µM | – | > 100 µM | > 100 µM | – | > 100 µM | > 100 µM | > 100 µM | > 100 µM | – | – | – | – | – | – | – | –
10 | C/C(=C\COP(=O)(O)CP(=O)(O)O)CC/C=C(\C)CNc1ccccc1 | > 100 µM | > 100 µM | > 100 µM | > 100 µM | > 100 µM | > 100 µM | > 100 µM | > 100 µM | > 100 µM | > 100 µM | > 100 µM | 30.3 µM | – | – | – | – | – | – | – | –
11 | O[C@@H]1CCCCN1Cc1cc2cc3c(cc2c2cc(OCc4ccccc4)ccc12)OCO3 | 3.93 µM | – | 2.21 µM | – | – | 3.66 µM | 2.61 µM | – | 2.45 µM | 3.39 µM | 2.95 µM | 3.97 µM | 1.73 µM | 1.04 µM | 1.86 µM | 1.26 µM | 1.03 µM | 1.64 µM | 1.52 µM | 2.01 µM
12 | O=C1OCC2=C1C(c1ccc(Cl)cc1)c1cc3c(cc1O2)OCO3 (stereo not given) | > 100 µM | > 100 µM | > 34.6 µM | > 100 µM | > 100 µM | > 100 µM | > 100 µM | > 72.2 µM | > 100 µM | > 100 µM | – | > 100 µM | – | – | – | – | – | – | – | –
13 | O=C(c1ccccc1)N1N=C(C(F)(F)F)CC1(O)C(F)(F)F (stereo not given) | > 100 µM | > 100 µM | > 100 µM | > 100 µM | > 100 µM | > 100 µM | > 100 µM | > 100 µM | > 100 µM | – | > 100 µM | > 100 µM | – | – | – | – | – | – | – | –
14 | O=[N+]([O-])c1cccc(-c2ccc([C@H]3CC(c4ccc(Cl)cc4)=NN3)o2)c1 | > 100 µM | 28.5 µM | 31.2 µM | 45.8 µM | – | 83.9 µM | > 100 µM | > 100 µM | 56.9 µM | 54.5 µM | – | > 100 µM | – | – | – | – | – | – | – | –
15 | CC1=C(C(N)=O)C(c2ccncc2)C(C#N)C(=O)N1 (stereo not given) | – | > 100 µM | > 100 µM | – | > 100 µM | > 100 µM | > 100 µM | > 100 µM | – | > 100 µM | > 100 µM | > 100 µM | – | – | – | – | – | – | – | –
16 | CCOP(=O)(OCC)/C(F)=C/c1ccc(F)cc1 | > 100 µM | > 100 µM | > 100 µM | – | > 100 µM | > 100 µM | > 100 µM | > 100 µM | > 100 µM | > 100 µM | > 100 µM | > 100 µM | – | – | – | – | – | – | – | –
17 | CCOC(=O)c1sc(N)nc1N1CCCC1 | > 100 µM | > 100 µM | > 100 µM | > 100 µM | > 100 µM | > 100 µM | – | > 100 µM | > 100 µM | > 100 µM | > 100 µM | > 100 µM | – | – | – | – | – | – | – | –
18 | CN1CN(c2ccccc2)C2(CCN(CCCN(C)c3ccc(F)cc3)CC2)C1=O | 41.8 µM | 42.2 µM | 25.4 µM | 45.1 µM | 63.8 µM | 33.6 µM | 54.6 µM | 42.8 µM | 22.6 µM | 42.3 µM | 33.3 µM | – | – | – | – | – | – | – | – | –
19 | O=c1cc(O)c1=O | > 100 µM | – | > 100 µM | > 100 µM | > 100 µM | > 100 µM | > 100 µM | > 100 µM | > 100 µM | > 100 µM | > 100 µM | > 100 µM | – | – | – | – | – | – | – | –
